Test results as given in patent US6737383B1, “Herbicidal oxadiazolidines” (priority 1999, dated 2004).

Tests used:
crabgrass = assay: Test B pre/postemergence crabgrass; type: in vivo, Digitaria sanguinalis; conditions: for Crabgrass plant response rating (0 to 10 scale): 0 is no effect
In short: (§1)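 Response is a visual 0-to-10 score relative to untreated plants, where 0 means no effect and 10 means complete control, taken twelve to sixteen days after application. Treatments went onto soil at planting and onto foliage of 1- to 4-leaf plants, using a surfactant-containing non-phytotoxic solvent.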

wheat = assay: Test B pre/postemergence wheat; type: in vivo, Triticum aestivum; conditions: for Wheat plant response rating (0 to 10 scale): 0 is no effect
In short: as §1

wild oat = assay: Test B pre/postemergence wild oat; type: in vivo, Avena fatua; conditions: for Wild oats plant response rating (0 to 10 scale): 0 is no effect
In short: as §1

cocklebur = assay: Test B pre/postemergence cocklebur; type: in vivo, Xanthium strumarium; conditions: for Cocklebur plant response rating (0 to 10 scale): 0 is no effect
In short: as §1

[1] = Postemergence, Rate 125 g/ha, scale of 0 to 10 where 0 is no effect and 10 is complete control
[2] = Postemergence, Rate 250 g/ha, scale 0 to 10, 0 no effect, 10 complete control
[3] = Postemergence, Rate 1000 g/ha, scale 0 to 10 (0 no effect, 10 complete control)
[4] = Preemergence, Rate 62 g/ha, scale 0 to 10 (0 no effect, 10 complete control)
[5] = Preemergence, Rate 125 g/ha, scale 0 to 10 (0 no effect, 10 complete control)
[6] = Preemergence, Rate 250 g/ha, scale of 0 to 10 where 0 is no effect and 10 is complete control
[7] = Preemergence, Rate 500 g/ha, scale 0 (no effect) to 10 (complete control)
[8] = Rate 62 g/ha, Postemergence, scale of 0 to 10 where 0 is no effect and 10 is complete control
[9] = Rate 500 g/ha, Postemergence, scale 0 to 10, 0 no effect, 10 complete control
[10] = Rate 1000 g/ha, Preemergence, scale 0 to 10 (0 no effect, 10 complete control)
[11] = Preemergence, Rate 125 g/ha, 10 is complete control
[12] = Rate 250 g/ha, Postemergence, scale 0 to 10, 0 is no effect, 10 is complete control
[13] = Preemergence, Rate 500 g/ha, scale 0 to 10 (0 no effect, 10 complete control)
[14] = Preemergence, Rate 250 g/ha, scale 0 to 10, 0 is no effect, 10 is complete control
[15] = Rate 500 g/ha, Postemergence, scale 0 to 10
[16] = Preemergence, Rate 31 g/ha, visual rating, scale 0 to 10 (0 no effect, 10 complete control)
[17] = Rate 31 g/ha, Postemergence, scale 0 to 10
[18] = Preemergence, Rate 62 g/ha, scale of 0 to 10 where 0 is no effect and 10 is complete control
[19] = Rate 125 g/ha, Postemergence, scale 0 to 10

CC(C)N(C(=O)n1oc(=O)n(C2CCCCC2C(F)(F)F)c1=O)c1ccc(F)cc1 (centres unmarked) [Compound 99]
7: Plant response rating, Wild oats (wild oat; [10]) | Plant response rating, Cocklebur (cocklebur; [10])
10: Plant response rating, Crabgrass (crabgrass; [6]) | Crabgrass plant response rating (crabgrass; [7]) | Plant response rating, Crabgrass (crabgrass; [10])
3: Wild oats plant response rating (wild oat; [3]) | Wild oats plant response rating (0 to 10 scale) (wild oat; [11]) | Plant response rating, Wild oats (wild oat; [6]) | Cocklebur plant response rating (cocklebur; [9])
5: Crabgrass plant response rating (crabgrass; [4]) | Wild oats plant response rating (wild oat; [7])
2: Crabgrass plant response rating (crabgrass; [1]) | Wheat plant response rating (wheat; [3]) | Plant response rating, Wheat (wheat; [6]) | Wheat plant response rating (wheat; [7]) | Plant response rating, Wheat (wheat; [10]) | Cocklebur plant response rating (cocklebur; [1]) | Cocklebur plant response rating (cocklebur; [2])
4: Crabgrass plant response rating (crabgrass; [2]) | Cocklebur plant response rating (cocklebur; [3])
8: Crabgrass plant response rating (crabgrass; [3]) | Plant response rating, Crabgrass (crabgrass; [5]) | Crabgrass plant response rating (crabgrass; [9])
0: Crabgrass plant response rating (crabgrass; [8]) | Wheat plant response rating (wheat; [1]) | Wheat plant response rating (wheat; [4]) | Wheat plant response rating (0 to 10 scale) (wheat; [11]) | Wheat plant response rating (wheat; [8]) | Plant response rating, Wheat (wheat; [12]) | Wheat plant response rating (wheat; [9]) | Wild oats plant response rating (wild oat; [1]) | Wild oats plant response rating (wild oat; [4]) | Wild oats plant response rating (wild oat; [8]) | Plant response rating, Wild oats (wild oat; [12]) | Wild oats plant response rating (wild oat; [9]) | Cocklebur plant response rating (cocklebur; [4]) | Plant response rating, Cocklebur (cocklebur; [5]) | Plant response rating, Cocklebur (cocklebur; [6]) | Cocklebur plant response rating (cocklebur; [7]) | Cocklebur plant response rating (cocklebur; [8])

CCc1noc(CC)c1-n1c(=O)on(C(=O)N(c2ccc(F)cc2)C(C)C)c1=O [Compound 102]
5: Crabgrass plant response rating (crabgrass; [9])
0: Crabgrass plant response rating (crabgrass; [1]) | Crabgrass plant response rating (crabgrass; [2]) | Crabgrass plant response rating (crabgrass; [4]) | Plant response rating, Crabgrass (crabgrass; [5]) | Plant response rating, Crabgrass (crabgrass; [6]) | Crabgrass plant response rating (crabgrass; [8]) | Wheat plant response rating (wheat; [1]) | Wheat plant response rating (wheat; [4]) | Wheat plant response rating (0 to 10 scale) (wheat; [11]) | Plant response rating, Wheat (wheat; [6]) | Wheat plant response rating (wheat; [8]) | Plant response rating, Wheat (wheat; [12]) | Wheat plant response rating (wheat; [9]) | Wild oats plant response rating (wild oat; [1]) | Wild oats plant response rating (wild oat; [4]) | Wild oats plant response rating (0 to 10 scale) (wild oat; [11]) | Plant response rating, Wild oats (wild oat; [6]) | Wild oats plant response rating (wild oat; [8]) | Plant response rating, Wild oats (wild oat; [12]) | Wild oats plant response rating (wild oat; [9]) | Cocklebur plant response rating (cocklebur; [1]) | Cocklebur plant response rating (cocklebur; [2]) | Cocklebur plant response rating (cocklebur; [4]) | Plant response rating, Cocklebur (cocklebur; [5]) | Plant response rating, Cocklebur (cocklebur; [6]) | Cocklebur plant response rating (cocklebur; [8]) | Cocklebur plant response rating (cocklebur; [9])

Cc1nn(C)c(C)c1-n1c(=O)on(C(=O)N(c2ccccc2)C(C)C)c1=O [Compound 120]
0: Wheat plant response rating (wheat; [1]) | Wheat plant response rating (wheat; [4]) | Wheat plant response rating (0 to 10 scale) (wheat; [11]) | Wheat plant response rating (wheat; [8]) | Plant response rating, Wheat (wheat; [12]) | Wild oats plant response rating (wild oat; [1]) | Wild oats plant response rating (wild oat; [4]) | Wild oats plant response rating (wild oat; [8]) | Plant response rating, Wild oats (wild oat; [12]) | Cocklebur plant response rating (cocklebur; [4]) | Plant response rating, Cocklebur (cocklebur; [5]) | Plant response rating, Cocklebur (cocklebur; [6]) | Cocklebur plant response rating (cocklebur; [13])
4: Wheat plant response rating (wheat; [9]) | Cocklebur plant response rating (cocklebur; [9])
9: Crabgrass plant response rating (crabgrass; [2]) | Plant response rating, Crabgrass (crabgrass; [6]) | Crabgrass plant response rating (crabgrass; [13]) | Crabgrass plant response rating (crabgrass; [9])
3: Cocklebur plant response rating (cocklebur; [2])
7: Crabgrass plant response rating (crabgrass; [1])
2: Plant response rating, Wheat (wheat; [6]) | Wild oats plant response rating (0 to 10 scale) (wild oat; [11]) | Wild oats plant response rating (wild oat; [9])
6: Crabgrass plant response rating (crabgrass; [4]) | Plant response rating, Crabgrass (crabgrass; [5]) | Wheat plant response rating (wheat; [13]) | Plant response rating, Wild oats (wild oat; [6])
1: Cocklebur plant response rating (cocklebur; [1]) | Cocklebur plant response rating (cocklebur; [8])
8: Wild oats plant response rating (wild oat; [13])
5: Crabgrass plant response rating (crabgrass; [8])

Cc1cnn(C)c1-n1c(=O)on(C(=O)N(c2ccc(F)cc2)C(C)C)c1=O [Compound 125]
0: Crabgrass plant response rating (crabgrass; [1]) | Crabgrass plant response rating (crabgrass; [4]) | Crabgrass plant response rating (0 to 10 scale) (crabgrass; [11]) | Crabgrass plant response rating (crabgrass; [14]) | Crabgrass plant response rating (crabgrass; [13]) | Crabgrass plant response rating (crabgrass; [8]) | Plant response rating, Crabgrass (crabgrass; [12]) | Crabgrass plant response rating (crabgrass; [15]) | Wheat plant response rating (wheat; [1]) | Wheat plant response rating (wheat; [4]) | Wheat plant response rating (0 to 10 scale) (wheat; [11]) | Wheat plant response rating (wheat; [14]) | Wheat plant response rating (wheat; [13]) | Wheat plant response rating (wheat; [8]) | Plant response rating, Wheat (wheat; [12]) | Wheat plant response rating (wheat; [15]) | Wild oats plant response rating (wild oat; [1]) | Wild oats plant response rating (wild oat; [4]) | Wild oats plant response rating (0 to 10 scale) (wild oat; [11]) | Wild oats plant response rating (wild oat; [14]) | Wild oats plant response rating (wild oat; [13]) | Wild oats plant response rating (wild oat; [8]) | Plant response rating, Wild oats (wild oat; [12]) | Wild oats plant response rating (wild oat; [15]) | Cocklebur plant response rating (cocklebur; [1]) | Cocklebur plant response rating (cocklebur; [4]) | Cocklebur plant response rating (0 to 10 scale) (cocklebur; [11]) | Cocklebur plant response rating (cocklebur; [14]) | Cocklebur plant response rating (cocklebur; [13]) | Cocklebur plant response rating (cocklebur; [8]) | Plant response rating, Cocklebur (cocklebur; [12]) | Cocklebur plant response rating (cocklebur; [15])

Cc1noc(C)c1-n1c(=O)on(C(=O)N(c2ccc(F)cc2)C(C)C)c1=O [Compound 155]
8: Plant response rating, Crabgrass (crabgrass; [12])
2: Crabgrass plant response rating (crabgrass; [1])
1: Crabgrass plant response rating (crabgrass; [8])
0: Crabgrass plant response rating (crabgrass; [16]) | Crabgrass plant response rating (crabgrass; [4]) | Crabgrass plant response rating (0 to 10 scale) (crabgrass; [11]) | Crabgrass plant response rating (crabgrass; [17]) | Wheat plant response rating (wheat; [16]) | Wheat plant response rating (wheat; [4]) | Wheat plant response rating (0 to 10 scale) (wheat; [11]) | Wheat plant response rating (wheat; [14]) | Wheat plant response rating (wheat; [8]) | Plant response rating, Wheat (wheat; [12]) | Wild oats plant response rating (wild oat; [16]) | Wild oats plant response rating (wild oat; [4]) | Wild oats plant response rating (0 to 10 scale) (wild oat; [11]) | Wild oats plant response rating (wild oat; [14]) | Wild oats plant response rating (wild oat; [8]) | Plant response rating, Wild oats (wild oat; [12]) | Cocklebur plant response rating (cocklebur; [1]) | Cocklebur plant response rating (cocklebur; [16]) | Cocklebur plant response rating (cocklebur; [4]) | Cocklebur plant response rating (0 to 10 scale) (cocklebur; [11]) | Cocklebur plant response rating (cocklebur; [14]) | Cocklebur plant response rating (cocklebur; [17]) | Cocklebur plant response rating (cocklebur; [8]) | Plant response rating, Cocklebur (cocklebur; [12])
6: Crabgrass plant response rating (crabgrass; [14])

COc1nc(OC)nc(N(C(=O)n2oc(=O)n(C(C)C)c2=O)C(C)C)n1 [Compound 182]
0: Crabgrass plant response rating (crabgrass; [18]) | Crabgrass plant response rating (0 to 10 scale) (crabgrass; [11]) | Crabgrass plant response rating (crabgrass; [14]) | Crabgrass plant response rating (crabgrass; [13]) | Crabgrass plant response rating (crabgrass; [8]) | Crabgrass plant response rating (crabgrass; [19]) | Plant response rating (0 to 10; 0 is no effect, 10 is complete control), Crabgrass (crabgrass; Rate 250 g/ha, Postemergence) | Crabgrass plant response rating (crabgrass; [15]) | Wheat plant response rating (wheat; [18]) | Wheat plant response rating (wheat; [14]) | Wheat plant response rating (wheat; [13]) | Wheat plant response rating (wheat; [19]) | Plant response rating (0 to 10; 0 is no effect, 10 is complete control), Wheat (wheat; Rate 250 g/ha, Postemergence) | Wheat plant response rating (wheat; [15]) | Wild oats plant response rating (wild oat; [18]) | Wild oats plant response rating (wild oat; [14]) | Wild oats plant response rating (wild oat; [13]) | Wild oats plant response rating (wild oat; [19]) | Plant response rating (0 to 10; 0 is no effect, 10 is complete control), Wild oats (wild oat; Rate 250 g/ha, Postemergence) | Wild oats plant response rating (wild oat; [15]) | Cocklebur plant response rating (cocklebur; [18]) | Cocklebur plant response rating (0 to 10 scale) (cocklebur; [11]) | Cocklebur plant response rating (cocklebur; [14]) | Cocklebur plant response rating (cocklebur; [13]) | Cocklebur plant response rating (cocklebur; [8]) | Cocklebur plant response rating (cocklebur; [19]) | Plant response rating (0 to 10; 0 is no effect, 10 is complete control), Cocklebur (cocklebur; Rate 250 g/ha, Postemergence) | Cocklebur plant response rating (cocklebur; [15])
